From US20260224577A1, “METHODS OF TREATING HEART FAILURE WITH VIBEGRON” (SUMITOMO PHARMA CO., LTD., priority 2021, published 2026)

Experiments:
β2-adrenergic receptor = molecular target: T1, β2-adrenergic receptor (Homo sapiens, UniProt P07550); assay: Functional cellular cAMP (HTRF) assay, CHO cells expressing β2-ARs; format: cell-based; settings: relative to procaterol
T1 construct: expressed in transfected cells; host or cells: CHO
Method: (§1) The potency and maximal effect of vibegron and mirabegron for β3-adrenergic receptors and the selectivity for each […] receptor were determined. Functional cellular assays for vibegron and mirabegron activity were performed using Chinese hamster ovary (CHO) cells expressing β1- or β2-ARs and human embryonic kidney (HEK) 293 cells expressing β3-ARs. Cells were incubated with vibegron, mirabegron, or the appropriate control (isoproterenol for β1 and β3, procaterol for β2). Responses were quantified using homogeneous time-resolved fluorescence of cyclic adenosine monophosphate. Half-maximal effective concentration (EC50) and maximum response (Emax) values were determined by nonlinear least-squares regression analysis.

[1] = tested on: β3-AR over β2-AR and β1-AR; settings: cell based in vitro assays; cited from earlier work
[2] = tested on: mice with induced myocardial infarction; assay: Post-MI chronic heart failure in mice, heart histology (Mason's trichrome); format: in vivo, mouse; settings: for Average % Infarcted Myocardium / Average Left Ventricle Lumen Area: Week 6
Text: (§2) Myocardial infarction was induced in 10-12 week C57B/6 wild-type mice and after 2 weeks echo cardiograms were used to assess the MI severity in each mouse. Mice were randomized for treatment based on similarity and severity of the induced infarct. The mice were started with either vibegron or vehicle (1-3 doses) administered by continuous infusion using 2 week minipumps (Azlet Corp.) that were filled with the appropriate dose and implanted subcutaneously on the back of each animal in the region of the scapula. The minipumps were replaced with new minipumps in the same location at the 2 week time point and dosed for 4 weeks in total. Cardiac function was assessed by echocardiography (Echo) at 0, 2, 4, and 6 weeks. Some mice were subjected to terminal catheterization to measure hemodynamic pressures and adrenergic responsiveness. At the end of the 4 week treatment period (i.e., 6 weeks after MI was induced), cardiac function was measured, mice were sacrificed for histology of the heart, and terminal blood was collected to confirm the serum concentration of vibegron.
(§3) • 1. Day 0 (after 1-2 weeks acclimation)—pre-surgery Echo • 2. Perform LAD Ligation (MI) or Sham procedure • 3. Day 14—Echo and randomly assign groups • 4. Day 14—begin administration of vehicle and drug for 4 weeks • 5. Day 28—Echo (operator blinded to groups)—change pumps for another 2 week dosing • 6. Day 42—Echo (operator blinded to groups) • 7. Day 42—Some were used for hemodynamics and ISO dose response and all animals sacrificed. Some were used for histology and some for RNA/Protein analysis. Blood was also collected at the time of sacrifice to determine serum concentrations.
At the end of the study period, blood samples were processed for subsequent analysis of compound and decided biomarkers. At the end of the study, the heart was either preserved in formalin (for section, and staining) or snap frozen (for isolation of whole heart RNA, DNA and protein) as described above.
Histologies were obtained by sectioning the mouse hearts vertically in such a way that all four chambers were visible upon staining. The area of the left ventricle cavity was measured by staining with Mason's trichrome stain. The darker color indicates healthy myocardium and the lighter color indicates connective tissue, which is the largest component of infarcted myocardium.

β3-adrenergic receptor = molecular target: T2, β3-adrenergic receptor (Homo sapiens, UniProt P13945); assay: Functional cellular cAMP (HTRF) assay, HEK293 cells expressing β3-ARs; format: cell-based
T2 construct: expressed in transfected cells; host or cells: HEK293
T2 sequence (P13945 whole entry): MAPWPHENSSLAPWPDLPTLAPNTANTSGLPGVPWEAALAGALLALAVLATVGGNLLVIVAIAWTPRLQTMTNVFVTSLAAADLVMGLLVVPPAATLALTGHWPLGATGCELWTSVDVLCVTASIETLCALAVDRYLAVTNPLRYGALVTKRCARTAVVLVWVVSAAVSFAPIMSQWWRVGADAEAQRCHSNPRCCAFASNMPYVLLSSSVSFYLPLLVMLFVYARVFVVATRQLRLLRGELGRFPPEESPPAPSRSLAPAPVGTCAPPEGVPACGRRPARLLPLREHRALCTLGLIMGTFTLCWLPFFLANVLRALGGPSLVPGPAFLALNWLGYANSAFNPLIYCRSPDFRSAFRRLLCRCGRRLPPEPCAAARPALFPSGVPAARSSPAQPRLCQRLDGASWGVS
Method: as §1

[3] = Plasma titer after 4 weeks of treatment in post-MI mice; format: in vivo, mouse; settings: after 4 weeks of treatment (week 6), FIG. 6
Text: as §2
• 1. Day 0 (after 1-2 weeks acclimation)—pre-surgery Echo • 2. Perform LAD Ligation (MI) or Sham procedure • 3. Day 14—Echo and randomly assign groups • 4. Day 14—begin administration of vehicle and drug for 4 weeks • 5. Day 28—Echo (operator blinded to groups)—change pumps for another 2 week dosing • 6. […]

[4] = tested on: mice with induced myocardial infarction; assay: Post-MI chronic heart failure in mice, invasive hemodynamics with isoproterenol; format: in vivo, mouse; settings: 4 weeks of treatment
Text: as §2, §3
Invasive Measurements: The hemodynamic measurements occurred at the end of the study as described in the protocols above. […] Hemodynamic measurements were collected and analyzed for cardiac function.
The maximum (dp/dt max) rate of pressure change during contraction and minimum (dp/dt min) rate of pressure change during relaxation of the left ventricle were measured with increasing doses of isoproterenol in combination with vibegron. […]

T1 sequence (P07550 whole entry): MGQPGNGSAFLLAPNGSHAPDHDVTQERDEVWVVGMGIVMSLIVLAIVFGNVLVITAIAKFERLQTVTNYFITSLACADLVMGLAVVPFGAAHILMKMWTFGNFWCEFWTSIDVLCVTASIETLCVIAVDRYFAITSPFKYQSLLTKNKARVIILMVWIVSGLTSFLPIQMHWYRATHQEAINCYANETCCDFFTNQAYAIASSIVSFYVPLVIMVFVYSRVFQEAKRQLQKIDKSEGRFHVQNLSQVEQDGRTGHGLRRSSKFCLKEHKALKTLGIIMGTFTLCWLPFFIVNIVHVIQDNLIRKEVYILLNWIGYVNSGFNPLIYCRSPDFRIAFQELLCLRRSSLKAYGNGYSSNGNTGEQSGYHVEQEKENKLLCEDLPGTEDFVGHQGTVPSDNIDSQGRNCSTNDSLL

O=C(Nc1ccc(C[C@@H]2CC[C@H]([C@H](O)c3ccccc3)N2)cc1)[C@@H]1CCc2nccc(=O)n21 [Vibegron, (6S)—N-[4-[[(2S,5R)-5-[(R)-hydroxy(phenyl)methyl]pyrrolidin-2-yl]methyl]phenyl]-4-oxo-7,8-dihydro-6H-pyrrolo[1,2-a]pyrimidine-6-carboxamide]
β2-adrenergic activity (% Activity) (β2-adrenergic receptor): 2%
Selectivity for activation of β3-AR over β2-AR and β1-AR [1]: > 9,000 fold
Amount of healthy myocardium after infarction (trichrome stain) ([2]; MI mice, 4 weeks of treatment, versus vehicle, FIGS. 5A-5F): increases the amount of healthy myocardium after infarction
Average % Infarcted Myocardium ([2]; MI mice, high dose (10 mg/kg)): 7.68%
Average Left Ventricle Lumen Area ([2]; MI mice, high dose (10 mg/kg)): 75,061 AU
Average % Infarcted Myocardium ([2]; MI mice, low dose (1 mg/kg)): 21.79%
Average Left Ventricle Lumen Area ([2]; MI mice, low dose (1 mg/kg)): 170,789 AU
Average % Infarcted Myocardium ([2]; MI mice, medium dose (3 mg/kg)): 18.85%
Average Left Ventricle Lumen Area ([2]; MI mice, medium dose (3 mg/kg)): 72,474 AU
Adverse effects in healthy hearts (LV lumen area, infarcted myocardium) ([2]; sham mice, high dose): no adverse effects
Average Left Ventricle Lumen Area ([2]; sham mice, high dose (10 mg/kg)): 46,167 AU
β3-adrenergic activity relative to isoproterenol (% Activity) (β3-adrenergic receptor; 10 μM, HEK293 cells): 104%
Emax (β3-adrenergic receptor; HEK293, estimated by nonlinear least-squares regression, read-out: Emax (maximum response) at the β3-AR): 99.2%
EC50 (β3-adrenergic receptor; HEK293 cells expressing β3-ARs, cAMP, read-out: Mean (SEM) EC50 at the β3-AR): 2.13 nM
Emax (maximum response) at the β3-AR (β3-adrenergic receptor; estimated by nonlinear least-squares regression): ~100%
Potency at activating β3-ARs relative to mirabegron (β3-adrenergic receptor; ratio of mean EC50 values): approximately 5 times
Vibegron plasma titer [3]: consistent with the dosing
Maximum rate of pressure change (dp/dt max) during left ventricle contraction ([4]; increasing doses of isoproterenol, FIG. 4A): increased
Minimum rate of pressure change (dp/dt min) during left ventricle relaxation ([4]; increasing doses of isoproterenol, FIG. 4B): decreased
Change in heart rate with increasing doses of isoproterenol ([4]; versus mice not receiving vibegron, FIG. 4C): higher increase in heart rate
